Experimental data as given in patent US11530186B2, “Inhibitors for the β-catenin / T-cell factor protein-protein interaction” (H. LEE MOFFITT CANCER CENTER AND RESEARCH INSTITUTE, INC., priority 2018, dated 2022).
Where two headings read alike, the source gives them in different places.

Columns and labels:
HCT116 cells = experiment: MTS cell viability assay, HCT116; type: cell-based; conditions: Homo sapiens, HCT-116; 72 h; mean ± SD (n = 3); Table 5; read-out: MTS cell viability IC50, Wnt hyperactive cancer cells HCT116
Procedure: (§1) MTS Cell Viability Assay. Colorectal cancer cells (SW480 and HCT116), TNBC cells (MDA-MB-231, MDA-MB-468, and BT-20), and lung cancer A549 cells were seeded in 96-well plates at 5×10^3 cells/well, maintained overnight at 37° C., and incubated with the tested compounds at various concentrations. Cell viability was monitored after 72 h using a freshly prepared mixture of 1 part phenazine methosulfate (PMS, Sigma) solution (0.92 mg/mL) and 19 parts 3-(4,5-dimethylthiazol-2-yl)-5-(3-carboxymethoxyphenyl)-2-(4-sulfophenyl)-2H-tetrazolium (MTS, Promega) solution (2 mg/mL). Cells were incubated in 10 μL of this solution at 37° C. for 3 h, and A490 was measured. The effect of each compound is expressed as the concentration required to reduce A490 by 50% (IC50) relative to DMSO-treated cells. Experiments were performed in triplicate.

[1] = molecular target: T1, β-catenin/Tcf protein-protein interaction (Homo sapiens, UniProt P35222); experiment: FP competitive inhibition assay; type: binding
T1 construct: Wild-type β-catenin (residues 138-781) were cloned into a pET-28b vector; 6×histidine (C); made in house; host or cells: E. coli BL21 DE3
T1 sequence (P35222 138-781): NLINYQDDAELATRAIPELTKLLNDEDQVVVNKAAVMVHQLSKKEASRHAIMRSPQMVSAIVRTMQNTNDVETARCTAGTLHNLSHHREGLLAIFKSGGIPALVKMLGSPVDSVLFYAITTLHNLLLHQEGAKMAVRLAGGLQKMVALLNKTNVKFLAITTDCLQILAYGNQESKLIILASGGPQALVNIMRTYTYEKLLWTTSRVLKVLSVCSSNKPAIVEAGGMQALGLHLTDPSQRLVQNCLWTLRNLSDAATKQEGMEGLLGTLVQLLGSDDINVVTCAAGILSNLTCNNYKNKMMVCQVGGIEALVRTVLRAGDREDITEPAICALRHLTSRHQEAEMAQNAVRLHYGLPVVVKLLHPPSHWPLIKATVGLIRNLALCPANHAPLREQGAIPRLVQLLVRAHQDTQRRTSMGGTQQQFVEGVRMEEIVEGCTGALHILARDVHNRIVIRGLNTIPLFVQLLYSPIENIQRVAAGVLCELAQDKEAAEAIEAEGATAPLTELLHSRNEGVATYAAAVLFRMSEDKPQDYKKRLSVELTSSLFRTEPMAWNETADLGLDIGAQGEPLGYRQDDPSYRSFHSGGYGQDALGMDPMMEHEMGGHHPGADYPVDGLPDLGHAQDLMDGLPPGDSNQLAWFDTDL
How it was run: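 His-tagged human β-catenin (residues 138-781, E. coli-expressed) at 10 nM with 2.5 nM fluorescein-labeled Tcf4 (7-51) in PBS-type buffer with bovine γ-globulin and 0.01% Triton X-100. Compounds added, 1.5 h at 4 °C, 1% DMSO, before fluorescence polarization read. IC50 by nonlinear fit; Ki derived from IC50.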

SW480 cells = experiment: MTS cell viability assay, SW480; type: cell-based; conditions: Homo sapiens, SW480, 72 h, mean ± SD (n = 3)
Procedure: as §1

[2] = Assay 1, mean ± SD (n = 3), read-out: Ki ± SD, Assay 1
[3] = Assay 2, mean ± SD (n = 3), read-out: Ki ± SD, Assay 2
[4] = Table 5, read-out: MTS cell viability IC50, Wnt hyperactive cancer cells SW480
[5] = Table 4, read-out: MTS cell viability IC50, Wnt hyperactive SW480 Cells (converted)

Structure (SMILES) | Ki [1, 2] [µM] | Ki [1, 3] [µM] | also measured
COc1ccc2sc(CCc3c(CCc4ccc(Cl)cc4)c4cc(C(=O)NCc5ccon5)ccc4n3CCc3nn[nH]n3)nc2c1 [Compound 62, 1-(2-(2H-tetrazol-5-yl)ethyl)-3-(4-chlorophenethyl)-N-(isoxazol-3-ylmethyl)-2-(2-(5-methoxybenzo[d]thiazol-2-yl)ethyl)-1H-indole-5-carboxamide] | 3.1 ± 0.18 | 7.6 ± 0.55 | IC50 (HCT116 cells): 28 ± 3.8 µM; IC50 (SW480 cells; [4]): 21 ± 2.1 µM
COC(=O)CCn1c(CCc2nc3ccccc3s2)c(CCc2ccc(Cl)cc2)c2cc(C(=O)OC)ccc21 [Compound 43, Methyl 2-(2-(benzo[d]thiazol-2-yl)ethyl)-3-(4-chlorophenethyl)-1-(3-methoxy-3-oxopropyl)-1H-indole-5-carboxylate] | – | – | IC50 (SW480 cells; [5]): > 400 µM
COc1ccc2sc(CCc3c(CCc4ccc(Cl)cc4)c4cc(C(=O)NCc5ccccc5N(C)C)ccc4n3CCc3nn[nH]n3)nc2c1 [Compound 54, 1-(2-(2H-tetrazol-5-yl)ethyl)-3-(4-chlorophenethyl)-N-(2-(dimethylamino)benzyl)-2-(2-(5-methoxybenzo[d]thiazol-2-yl)ethyl)-1H-indole-5-carboxamide] | 1.9 ± 0.14 | 3 ± 0.24 | IC50 (HCT116 cells): 11 ± 1.7 µM; IC50 (SW480 cells; [4]): 11 ± 1.5 µM
COc1ccc2sc(CCc3c(CCc4ccc(Cl)cc4)c4cc(C(=O)NCc5cnccn5)ccc4n3CCc3nn[nH]n3)nc2c1 [Compound 58, 1-(2-(2H-tetrazol-5-yl)ethyl)-3-(4-chlorophenethyl)-2-(2-(5-methoxybenzo[d]thiazol-2-yl)ethyl)-N-(pyrazin-2-ylmethyl)-1H-indole-5-carboxamide] | 2 ± 0.29 | 7.6 ± 0.94 | IC50 (HCT116 cells): 12 ± 1.8 µM; IC50 (SW480 cells; [4]): 19 ± 1.8 µM
COc1ccc2sc(CCc3c(CCc4ccc(Cl)cc4)c4cc(C(=O)NCc5ccncn5)ccc4n3CCc3nn[nH]n3)nc2c1 [Compound 57, 1-(2-(2H-tetrazol-5-yl)ethyl)-3-(4-chlorophenethyl)-2-(2-(5-methoxybenzo[d]thiazol-2-yl)ethyl)-N-(pyrimidin-4-ylmethyl)-1H-indole-5-carboxamide] | 3.6 ± 0.35 | 2.8 ± 0.17 | IC50 (HCT116 cells): 24 ± 2.8 µM; IC50 (SW480 cells; [4]): 19 ± 1.6 µM
Cc1ccc(CCc2c(-c3ccsc3)n(CCc3nn[nH]n3)c3ccc(C(=O)NO)cc23)cc1 [Compound 90, 1-(2-(2H-tetrazol-5-yl)ethyl)-N-hydroxy-3-(4-methylphenethyl)-2-(thiophen-3-yl)-1H-indole-5-carboxamide] | 0.34 ± 0.043 | 0.24 ± 0.043 | IC50 (HCT116 cells): 133 ± 4.1 µM; IC50 (SW480 cells; [4]): 115 ± 22 µM
O=C(NCc1ccc(Cl)cc1)c1ccc2c(c1)c(CCc1ccc(F)cc1)c(CCc1nc3ccccc3s1)n2CCc1nn[nH]n1 [Compound 45, 1-(2-(2H-tetrazol-5-yl)ethyl)-2-(2-(benzo[d]thiazol-2-yl)ethyl)-N-(4-chlorobenzyl)-3-(4-fluoro-phenethyl)-1H-indole-5-carboxamide] | 0.97 ± 0.39 | 0.7 ± 0.02 | IC50 (HCT116 cells): 12 ± 1.9 µM; IC50 (SW480 cells; [4]): 14 ± 2.2 µM
Cc1ccc(CCc2c(-c3ccsc3)n(CCc3nn[nH]n3)c3ccc(C(N)=O)cc23)cc1 [Compound 88, 1-(2-(2H-tetrazol-5-yl)ethyl)-3-(4-methylphenethyl)-2-(thiophen-3-yl)-1H-indole-5-carboxamide] | 16 ± 0.71 | ~24 | –
Cc1ccc(CCc2cn(CCC(=O)O)c3ccc(C(=O)O)cc23)cc1 [Compound 24, 1-(2-carboxyethyl)-3-(4-methylphenethyl)-1H-indole-5-carboxylic acid] | 77 ± 4.5 | – | –
COc1ccc2sc(CCc3c(CCc4ccc(Cl)cc4)c4cc(C(=O)NCC5CCOCC5)ccc4n3CCc3nn[nH]n3)nc2c1 [Compound 64, 1-(2-(2H-tetrazol-5-yl)ethyl)-3-(4-chlorophenethyl)-2-(2-(5-methoxybenzo[d]thiazol-2-yl)ethyl)-N-((tetrahydro-2H-pyran-4-yl)methyl)-1H-indole-5-carboxamide] | 5.4 ± 0.76 | 9.5 ± 1.5 | –
O=C(O)c1ccc2c(c1)c(CCc1ccccc1)c(CCc1nc3ccccc3s1)n2CCc1nn[nH]n1 [Compound 25, 1-(2-(2H-tetrazol-5-yl)ethyl)-2-(2-(benzo[d]thiazol-2-yl)ethyl)-3-phenethyl-1H-indole-5-carboxylic acid] | 11 ± 3.9 | 4.1 ± 0.88 | –
Cc1ccc(CCc2c(-c3cn[nH]c3)n(CCc3nn[nH]n3)c3ccc(C(=O)NCc4ccon4)cc23)cc1 [Compound 97, 1-(2-(2H-tetrazol-5-yl)ethyl)-N-(isoxazol-3-ylmethyl)-3-(4-methylphenethyl)-2-(1H-pyrazol-4-yl)-1H-indole-5-carboxamide] | 17 ± 1.6 | – | –
COc1ccc2sc(CCc3c(CCc4ccc(Cl)cc4)c4cc(C(=O)NCc5ccc(Cl)cc5)ccc4n3CCc3nn[nH]n3)nc2c1 [Compound 48, 1-(2-(2H-tetrazol-5-yl)ethyl)-N-(4-chlorobenzyl)-3-(4-chlorophenethyl)-2-(2-(5-methoxybenzo-[d]thiazol-2-yl)ethyl)-1H-indole-5-carboxamide] | 2.4 ± 0.56 | 3.2 ± 0.24 | IC50 (SW480 cells; [5]): 9.3 ± 4.9 µM
O=C(O)CCn1cc(CCc2ccc(Cl)cc2)c2cc(C(=O)O)ccc21 [Compound 23, 1-(2-carboxyethyl)-3-(4-chlorophenethyl)-1H-indole-5-carboxylic acid] | 94 ± 9.6 | – | –
O=C(O)c1cccc(CCc2nn[nH]n2)c1 [Compound 1, 3-(2-(2H-tetrazol-5-yl)ethyl)benzoic acid] | 990 ± 36 | – | –
Cc1cn(CCc2nn[nH]n2)c2ccccc12 [Compound 2, 1-(2-(2H-tetrazol-5-yl)ethyl)-3-methyl-1H-indole] | 348 ± 1.3 | 780 ± 100 | –
O=C(O)c1ccc2c(c1)c(CCc1ccccc1)cn2CCc1nn[nH]n1 [Compound 5, 1-(2-(2H-tetrazol-5-yl)ethyl)-3-phenethyl-1H-indole-5-carboxylic acid] | 62 ± 12 | – | –
Cc1ccc(CCc2c(CCc3nc4ccccc4[nH]3)n(CCC(=O)O)c3ccc(C(=O)O)cc23)cc1 [Compound 42, 2-(2-(1H-benzo[d]imidazol-2-yl)ethyl)-1-(2-carboxyethyl)-3-(4-methylphenethyl)-1H-indole-5-carboxylic acid] | 29 ± 3.3 | 2 ± 1.2 | –
COc1ccc2sc(CCc3c(CCc4ccc(Cl)cc4)c4cc(C(=O)NCC5CCOC5)ccc4n3CCc3nn[nH]n3)nc2c1 (stereo not drawn) [Compound 65, 1-(2-(2H-tetrazol-5-yl)ethyl)-3-(4-chlorophenethyl)-2-(2-(5-methoxybenzo[d]thiazol-2-yl)ethyl)-N-((tetrahydrofuran-3-yl)methyl)-1H-indole-5-carboxamide] | 6.1 ± 0.76 | – | –
COc1ccc2sc(CCc3c(CCc4ccc(Cl)cc4)c4cc(C(=O)NCCOc5ccc(Cl)cc5)ccc4n3CCc3nn[nH]n3)nc2c1 [Compound 50, 1-(2-(2H-tetrazol-5-yl)ethyl)-3-(4-chlorophenethyl)-N-(2-(4-chlorophenoxy)ethyl)-2-(2-(5-methoxybenzo[d]thiazol-2-yl)ethyl)-1H-indole-5-carboxamide] | 3.2 ± 0.28 | – | –
COc1ccc2sc(CCc3c(CCc4ccc(Cl)cc4)c4cc(C(=O)N[C@H]5CC[C@@H](N)CC5)ccc4n3CCc3nn[nH]n3)nc2c1 [Compound 68, (1s,4s)-4-(1-(2-(2H-tetrazol-5-yl)ethyl)-3-(4-chlorophenethyl)-2-(2-(5-methoxybenzo[d]thiazol-2-yl)ethyl)-1H-indole-5-carboxamido)cyclohexan-1-aminium] | > 24 | > 22 | –
COc1ccc2sc(C#Cc3c(CCc4ccc(Cl)cc4)c4cc(C(=O)O)ccc4n3CCc3nn[nH]n3)nc2c1 [Compound 71, 1-(2-(2H-tetrazol-5-yl)ethyl)-3-(4-chlorophenethyl)-2-((5-methoxybenzo[d]thiazol-2-yl)ethynyl)-1H-indole-5-carboxylic acid] | 0.18 ± 0.034 | 0.29 ± 0.026 | Ki ([1]; Assay 3, mean ± SD (n = 3), read-out: Ki ± SD, Assay 3): 0.34 ± 0.023 µM; Ki ([1]; Assay 4, mean ± SD (n = 3), read-out: Ki ± SD, Assay 4): 0.45 ± 0.028 µM
